In assay [1] the target is hOX1R (Homo sapiens, UniProt O43613). Description: hOX1R FLIPR Ca2+ flux assay. The format is cell-based. The conditions noted are these: CHO cells expressing the receptor; agonist 70 pM Ala-6,12 human orexin-A. In general terms: A change in cytosolic calcium serves as a functional read-out for many receptors and channels.
Assay [2] has as its target human orexin-2 receptor (Homo sapiens (Human), UniProt O43614). Description: hOX2R FLIPR Ca2+ flux assay. The format is cell-based. The conditions noted are these: CHO cells expressing the receptor; agonist 70 pM Ala-6,12 human orexin-A. As for the experimental part: In a typical experiment the OX1 and OX2 receptor antagonistic activity of the compounds of the present invention was determined in accordance with the following experimental method. For intracellular calcium measurements, Chinese hamster ovary (CHO) cells expressing the rat orexin-1 receptor or the human orexin-2 receptor, are grown in Iscove's modified DMEM containing 2 mM L-glutamine, […], 1% hypoxanthine-thymidine supplement, 100 U/ml penicillin, 100 μg/ml streptomycin and 10% heat-inactivated fetal calf serum (FCS). The cells are seeded at 20,000 cells/well into Becton-Dickinson black 384-well clear bottom sterile plates coated with poly-D-lysine. All reagents were from GIBCO-Invitrogen Corp. The seeded plates are incubated overnight at 37° C. and 5% CO2. Ala-6,12 human orexin-A as the agonist is prepared as a 1 mM stock solution in 1% bovine serum albumin (BSA) and diluted in assay buffer (HBSS containing 20 mM HEPES, 0.1% BSA and 2.5 mM probenecid, pH7.4) for use in the assay at a final concentration of 70 pM. Test compounds are prepared as 10 mM stock solution in DMSO, then diluted in 384-well plates, first in DMSO, then assay buffer. On the day of the assay, cells are washed 3 times with 100 μl assay buffer and then incubated for 60 min (37° C., 5% CO2) in 60 μl assay buffer containing 1 μM Fluo-4AM ester, 0.02% pluronic acid, and 1% BSA. The dye loading solution is then aspirated and cells are washed 3 times with 100 μl assay buffer. 30 μl of that same buffer is left in each well. Within the Fluorescent Imaging Plate Reader (FLIPR, Molecular Devices), test compounds are added to the plate in a volume of 25 μl, incubated for 5 min and finally 25 μl of agonist is added. Fluorescence is measured for each well at 1 second intervals for 5 minutes and the height of each fluorescence peak is compared to the height of the fluorescence peak induced by 70 pM Ala-6,12 orexin-A with buffer in place of antagonist. […] Alternatively, compound potency can be assessed by a radioligand binding assay (described in Bergman et. al. Bioorg. Med. Chem. Lett. 2008, 18, 1425-1430) in which the inhibition constant (Ki) is determined in membranes prepared from CHO cells expressing either the OX1 or OX2 receptor. The intrinsic orexin receptor antagonist activity of a compound which may be used in the present invention may be determined by these assays.

Experimental findings from patent US9938276B2, “6,5-bicyclic octahydropyrrolopyridine orexin receptor antagonists” (Merck Sharp & Dohme Corp., priority 2014, dated 2018) are described below.

Chain of human orexin-2 receptor (O43614 whole entry): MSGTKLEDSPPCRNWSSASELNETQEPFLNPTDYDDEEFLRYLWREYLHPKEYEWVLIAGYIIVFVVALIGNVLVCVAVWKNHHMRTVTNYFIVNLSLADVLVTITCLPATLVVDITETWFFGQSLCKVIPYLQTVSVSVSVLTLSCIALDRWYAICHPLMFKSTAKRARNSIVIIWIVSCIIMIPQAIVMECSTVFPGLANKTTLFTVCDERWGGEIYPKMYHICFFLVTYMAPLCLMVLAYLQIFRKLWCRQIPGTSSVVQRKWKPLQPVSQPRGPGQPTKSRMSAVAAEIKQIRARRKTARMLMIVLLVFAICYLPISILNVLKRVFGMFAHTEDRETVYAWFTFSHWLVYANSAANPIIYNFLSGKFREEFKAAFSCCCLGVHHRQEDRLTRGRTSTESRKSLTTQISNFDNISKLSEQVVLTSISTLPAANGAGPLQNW

As usually defined, the IC50 is the concentration at which inhibition is half-maximal. Consider `Cc1ccnc(N2CC[C@@H]3CCN(C(=O)c4ccccc4-n4nccn4)C[C@@H]32)c1` [Example B1, (2-(2H-1,2,3-triazol-2-yl)phenyl)((3aR,7aR)-1-(4-methylpyridin-2-yl)hexahydro-1H-pyrrolo[2,3-c]pyridin-6(2H)-yl)methanone], for which the values for the half-maximal inhibitory concentration (IC50) in assay [1] and in assay [2] were not below 10 µM and 902 nM, respectively.

With `COc1ccnc(N2CC[C@@H]3CCN(C(=O)c4ccccc4-n4nccn4)C[C@@H]32)c1` [Example B3, (3aR, 7aR)-(2-(2H-1,2,3-triazol-2-yl)phenyl)(1-(4-methoxypyridin-2-yl)hexahydro-1H-pyrrolo[2,3-c]pyridin-6(2H)-yl)methanone], the IC50 in assay [1] was not below 10 µM; in assay [2], 1010 nM.

For the molecule `CCOc1ccnc(N2CC[C@@H]3CCN(C(=O)c4ccccc4-n4nccn4)C[C@@H]32)c1` [Example B4, (3aR, 7aR)-(2-(2H-1,2,3-triazol-2-yl)phenyl)(1-(4-ethoxypyridin-2-yl)hexahydro-1H-pyrrolo[2,3-c]pyridin-6(2H)-yl)methanone], the half-maximal inhibitory concentration (IC50) is not below 10 µM in assay [1] and 766 nM in assay [2].

In the case of `N#Cc1cc(N2CC[C@@H]3CCN(C(=O)c4ccccc4-n4nccn4)C[C@@H]32)ncc1F` [Example B5, 5-fluoro-2-[(3aR, 7aR)-6-{[2-(2H-1,2,3-triazol-2-yl)phenyl]carbonyl}octahydro-1H-pyrrolo[2,3-c]pyridin-1-yl]pyridine-4-carbonitrile], the half-inhibitory concentration (IC50) was not below 10 µM in assay [1] and 4720 nM in assay [2].

As to `N#Cc1cccc(N2CC[C@@H]3CCN(C(=O)c4ccccc4-n4nccn4)C[C@@H]32)c1` [Example B6, 3-((3aR, 7aR)-6-(2-(2H-1,2,3-triazol-2-yl)benzoyl)octahydro-1H-pyrrolo[2,3-c]pyridin-1-yl)benzonitrile], the 50% inhibitory concentration (IC50) in assay [1] was not below 10 µM; in assay [2], 1730 nM.

For `O=C(c1ccccc1-n1nccn1)N1CC[C@H]2CCN(c3ncnc4[nH]ccc34)[C@H]2C1` [Example B7, (3aR, 7aR)-(2-(2H-1,2,3-triazol-2-yl)phenyl)(1-(7H-pyrrolo[2,3-d]pyrimidin-4-yl)hexahydro-1H-pyrrolo[2,3-c]pyridin-6(2H)-yl)methanone], the concentration for half-maximal inhibition (IC50) in assay [1] was 10 µM; in assay [2] it was 10000 nM.

For `O=C(c1ccccc1-n1nccn1)N1CC[C@H]2CCN(c3nccc4ncccc34)[C@H]2C1` [Example B8, 5-[(3aR, 7aR)-6-{[2-(2H-1,2,3-triazol-2-yl)phenyl]carbonyl}octahydro-1H-pyrrolo[2,3-c]pyridin-1-yl]-1,6-naphthyridine], the IC50 in assay [1] was 10 µM; in assay [2] it was 2520 nM.

As for `O=C(c1ccccc1-n1nccn1)N1CC[C@H]2CCN(c3nccc4ccccc34)[C@H]2C1` [Example B9, (2-(2H-1,2,3-triazol-2-yl)phenyl)((3aR, 7aR)-1-(isoquinolin-1-yl)hexahydro-1H-pyrrolo[2,3-c]pyridin-6(2H)-yl)methanone], the results for the IC50 in assay [1] and in assay [2] were 1.66 µM and 40.8 nM, respectively.

Turning to `O=C(c1ccccc1-n1nccn1)N1CC[C@H]2CCN(c3ccnc4ccccc34)[C@H]2C1` [Example B10, (2-(2H-1,2,3-triazol-2-yl)phenyl)((3aR, 7aR)-1-(quinolin-4-yl)hexahydro-1H-pyrrolo[2,3-c]pyridin-6(2H)-yl)methanone], the IC50 in assay [1] amounted to 10 µM; in assay [2], 3430 nM.

For `COC(=O)c1csc(N2CC[C@@H]3CCN(C(=O)c4ccccc4-n4nccn4)C[C@@H]32)n1` [Example B11, methyl 2-((3aS, 7aR)-6-(2-(2H-1,2,3-triazol-2-yl)benzoyl)octahydro-1H-pyrrolo[2,3-c]pyridin-1-yl)thiazole-4-carboxylate], the concentration for half-maximal inhibition (IC50) in assay [1] was 10 µM; in assay [2], 10000 nM.

Take `O=C(c1ccccc1-n1nccn1)N1CC[C@H]2CCN(c3nccn4nccc34)[C@H]2C1` [Example B13, (3aR, 7aR)-6-(2-(2H-1,2,3-triazol-2-yl)benzoyl)-1-(pyrazolo[1,5-a]pyrazin-4-yl)ocathydro-1H-pyrrolo[2,3-c]pyridin-1-ium]: the IC50 in assay [1] is 10 µM; in assay [2] it was 2020 nM.

For the molecule `O=C(c1ccccc1-n1nccn1)N1CC[C@H]2CCN(c3nccn4ccnc34)[C@H]2C1` [Example B14, (2-(2H-1,2,3-triazol-2-yl)phenyl)((3aR, 7aR)-1-(imidazo[1,2-a]pyrazin-8-yl)hexahydro-1H-pyrrolo[2,3-c]pyridin-6(2H)-yl)methanone], the concentration for half-maximal inhibition (IC50) is not below 10 µM in assay [1] and 1070 nM in assay [2].

In the case of `O=C(c1ccccc1-n1nccn1)N1CC[C@H]2CCN(c3ncnc4sccc34)[C@H]2C1` [Example B15, (2-(2H-1,2,3-triazol-2-yl)phenyl)((3aR, 7aR)-1-(thieno[2,3-d]pyrimidin-4-yl)hexahydro-1H-pyrrolo[2,3-c]pyridin-6(2H)-yl)methanone], the results for the half-maximal inhibitory concentration (IC50) in assay [1] and in assay [2] were not below 10 µM and not below 10000 nM, respectively.

Take `O=C(c1ccccc1-n1nccn1)N1CC[C@H]2CCN(c3nccc4cccnc34)[C@H]2C1` [Example B16, ((3aR, 7aR)-1-(1,7-naphthyridin-8-yl)hexahydro-1H-pyrrolo[2,3-c]pyridin-6(2H)-yl)(2-(2H-1,2,3-triazol-2-yl)phenyl)methanone]: the IC50 is not below 10 µM in assay [1] and 750 nM in assay [2].

Consider `O=C(c1ccccc1-n1nccn1)N1CC[C@H]2CCN(c3ccc4ccccc4n3)[C@H]2C1` [Example B18, 2-[(3aR, 7aR)-6-{[2-(2H-1,2,3-triazol-2-yl)phenyl]carbonyl}octahydro-1H-pyrrolo[2,3-c]pyridin-1-yl]quinoline], for which the IC50 in assay [1] was 1.04 µM; in assay [2], 1530 nM.

Take `O=C1OCc2c1ccnc2N1CC[C@@H]2CCN(C(=O)c3ccccc3-n3nccn3)C[C@@H]21` [Example B19, 4-[(3aR, 7aR)-6-{[2-(2H-1,2,3-triazol-2-yl)phenyl]carbonyl}octahydro-1H-pyrrolo[2,3-c]pyridin-1-yl]furo[3,4-c]pyridin-1(3H)-one]: the values for the concentration for half-maximal inhibition (IC50) in assay [1] and in assay [2] were 10 µM and 1000 nM, respectively.

With `Cc1cncc(N2CC[C@@H]3CCN(C(=O)c4ccccc4-n4nccn4)C[C@@H]32)n1` [Example B20, (3aR, 7aR)-1-(6-methylpyrazin-2-yl)-6-{[2-(2H-1,2,3-triazol-2-yl)phenyl]carbonyl}octahydro-1H-pyrrolo[2,3-c]pyridine], the half-inhibitory concentration (IC50) in assay [1] is not below 10 µM; in assay [2], 2080 nM.

In the case of `Cc1ncc(N2CC[C@@H]3CCN(C(=O)c4ccccc4-n4nccn4)C[C@@H]32)nc1C` [Example B21, (3aR, 7aR)-1-(5,6-dimethylpyrazin-2-yl)-6-{[2-(2H-1,2,3-triazol-2-yl)phenyl]carbonyl}octahydro-1H-pyrrolo[2,3-c]pyridine], the values for the IC50 in assay [1] and in assay [2] were 10 µM and 948 nM, respectively.

For `Cc1cnc(C)c(N2CC[C@@H]3CCN(C(=O)c4ccccc4-n4nccn4)C[C@@H]32)n1` [Example B22, (3aR, 7aR)-1-(3,6-dimethylpyrazin-2-yl)-6-{[2-(2H-1,2,3-triazol-2-yl)phenyl]carbonyl}octahydro-1H-pyrrolo[2,3-c]pyridine], the figures for the IC50 in assay [1] and in assay [2] were not below 10 µM and 5910 nM, respectively.

As to `O=C(c1ccccc1-n1nccn1)N1CC[C@H]2CCN(c3cncc4ccccc34)[C@H]2C1` [Example B23, 4-[(3aR, 7aR)-6-{[2-(2H-1,2,3-triazol-2-yl)phenyl]carbonyl}octahydro-1H-pyrrolo[2,3-c]pyridin-1-yl]isoquinoline], the values for the 50% inhibitory concentration (IC50) in assay [1] and in assay [2] were 10 µM and 7070 nM, respectively.

With `CC(C)(O)c1csc(N2CC[C@H]3CCN(C(=O)c4ccccc4-n4nccn4)C[C@@H]32)n1` [Example C1], the IC50 in assay [1] is 10 µM; in assay [2], 202 nM.

Regarding `CC(C)(O)c1coc(N2CC[C@@H]3CCN(C(=O)c4ccccc4-n4nccn4)C[C@@H]32)n1` [Example C2], the figures for the IC50 in assay [1] and in assay [2] were 10 µM and 342 nM, respectively.

With `CC(O)(c1cncc(N2CC[C@@H]3CCN(C(=O)c4ccccc4-n4nccn4)C[C@@H]32)n1)C(F)(F)F` (stereo partly drawn) [Example C3, 1,1,1-trifluoro-2-{6-[(3aR, 7aR)-6-{[2-(2H-1,2,3-triazol-2-yl)phenyl]carbonyl}octahydro-1H-pyrrolo[2,3-c]pyridin-1-yl]pyrazin-2-yl}propan-2-ol], the 50% inhibitory concentration (IC50) in assay [1] was not below 10 µM; in assay [2], 3340 nM.

For the molecule `CC(C)(O)c1cccc(N2CC[C@@H]3CCN(C(=O)c4ccccc4-n4nccn4)C[C@@H]32)c1` [Example C4, 2-{3-[(3aR, 7aR)-6-{[2-(2H-1,2,3-triazol-2-yl)phenyl]carbonyl}octahydro-1H-pyrrolo[2,3-c]pyridin-1-yl]phenyl}propan-2-ol], the IC50 in assay [1] amounted to 10 µM; in assay [2] it was 48.6 nM.
